# Source: ChEMBL document CHEMBL2203125, “A Potent and Selective Quinoxalinone-Based STK33 Inhibitor Does Not Show Synthetic Lethality in KRAS-Dependent Cells” (ACS Med Chem Lett, 2012)
# Calls of active or inactive are those of the source. The calls are words filed in the database; no cut-off is given here.
# Legend:
# [1] = biological target: T1, Serine/threonine-protein kinase 33 (Homo sapiens, UniProt Q9BYT3); test: Inhibition of N-terminal 6His-tagged full length human recombinant STK33 using myelin basic protein as substrate incubated for 15 mins before initiation of kinase reaction measured after 1 hr by ADP-glo assay
# Target sequence in this assay (Q9BYT3 whole entry, the tested form may be a part): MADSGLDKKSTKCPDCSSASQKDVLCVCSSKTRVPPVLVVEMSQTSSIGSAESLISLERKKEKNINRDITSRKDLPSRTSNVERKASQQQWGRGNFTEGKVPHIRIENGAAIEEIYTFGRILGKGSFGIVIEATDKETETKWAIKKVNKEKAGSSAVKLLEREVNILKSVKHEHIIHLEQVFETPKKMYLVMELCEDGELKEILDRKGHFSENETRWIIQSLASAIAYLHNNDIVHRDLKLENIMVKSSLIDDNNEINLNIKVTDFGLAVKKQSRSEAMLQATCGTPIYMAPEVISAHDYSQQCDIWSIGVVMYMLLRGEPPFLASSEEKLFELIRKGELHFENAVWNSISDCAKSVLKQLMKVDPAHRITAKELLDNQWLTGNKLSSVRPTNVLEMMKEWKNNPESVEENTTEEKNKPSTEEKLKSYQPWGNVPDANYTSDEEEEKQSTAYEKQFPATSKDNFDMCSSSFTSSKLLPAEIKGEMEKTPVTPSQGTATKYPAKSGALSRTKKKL
# [2] = Inhibition of His-tagged recombinant catalytic fragment of PKA assessed as phosphorylation of fluorescent-labeled peptide 21substrate by caliper capillary electrophoresis
# [3] = Chemical stability of the compound in DMSO solution by LC-MS analysis; format: physicochemical
# [4] = species: Homo sapiens; test: Selectivity ratio of IC50 for His-tagged recombinant catalytic fragment of PKA to IC50 for N-terminal 6His-tagged full length human recombinant STK33
# [5] = species: Homo sapiens; test: Selectivity ratio of IC50 for human Aurora-B to IC50 for N-terminal 6His-tagged full length human recombinant STK33
# [6] = species: Homo sapiens; test: Selectivity ratio of IC50 for N-terminal 6His-tagged full length human recombinant STK33 to IC50 for human Aurora-B
# [7] = tested on: Jurkat; test: Cytotoxicity against human Jurkat cells expressing wild type KRAS assessed as effect on cell viability up to 10 uM after 72 hrs by CellTiter-Glo luminescent assay; format: functional, cell-based
# [8] = Metabolic stability in human plasma at 5 uM after 5 hrs by UPLC-MS analysis; format: ADME, cell-free; settings: read-out: Stability
# [9] = biological target: Receptor-type tyrosine-protein kinase FLT3 (Homo sapiens) (UniProt P36888); settings: 1 uM
# Sequence of Receptor-type tyrosine-protein kinase FLT3 (Homo sapiens) (P36888 whole entry): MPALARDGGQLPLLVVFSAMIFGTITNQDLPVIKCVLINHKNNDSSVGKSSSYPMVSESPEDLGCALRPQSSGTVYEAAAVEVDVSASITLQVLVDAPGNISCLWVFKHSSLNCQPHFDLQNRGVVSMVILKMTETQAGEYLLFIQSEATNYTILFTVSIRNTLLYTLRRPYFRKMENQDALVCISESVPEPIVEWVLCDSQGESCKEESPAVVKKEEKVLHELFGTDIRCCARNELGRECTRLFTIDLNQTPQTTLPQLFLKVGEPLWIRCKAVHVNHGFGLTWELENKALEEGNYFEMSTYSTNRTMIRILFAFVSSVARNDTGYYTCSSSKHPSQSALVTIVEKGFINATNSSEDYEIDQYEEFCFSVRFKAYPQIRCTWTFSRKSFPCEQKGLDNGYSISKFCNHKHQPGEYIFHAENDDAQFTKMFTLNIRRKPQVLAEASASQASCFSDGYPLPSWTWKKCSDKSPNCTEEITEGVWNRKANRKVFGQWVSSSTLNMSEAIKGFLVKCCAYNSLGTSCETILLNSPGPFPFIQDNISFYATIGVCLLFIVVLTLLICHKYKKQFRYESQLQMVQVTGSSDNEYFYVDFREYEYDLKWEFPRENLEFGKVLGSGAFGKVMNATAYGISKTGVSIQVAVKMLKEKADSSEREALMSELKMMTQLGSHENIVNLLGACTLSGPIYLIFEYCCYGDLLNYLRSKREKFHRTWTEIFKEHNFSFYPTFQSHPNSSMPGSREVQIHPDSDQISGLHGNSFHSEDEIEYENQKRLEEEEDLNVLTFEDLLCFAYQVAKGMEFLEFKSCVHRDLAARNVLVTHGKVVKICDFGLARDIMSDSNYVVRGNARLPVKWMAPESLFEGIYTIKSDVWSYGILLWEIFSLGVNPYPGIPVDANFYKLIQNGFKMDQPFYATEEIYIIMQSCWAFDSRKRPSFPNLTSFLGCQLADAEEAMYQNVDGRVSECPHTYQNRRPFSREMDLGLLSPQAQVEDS
# Description: Inhibition of human FLT3 at 1 uM
# [10] = tested on: GDM-1; test: Cytotoxicity against human GDM-1 cells expressing wild type KRAS assessed as effect on cell viability up to 10 uM after 72 hrs by CellTiter-Glo luminescent assay; format: functional, cell-based
# [11] = tested on: MOLM16; test: Cytotoxicity against human MOLM16 cells expressing wild type KRAS assessed as effect on cell viability up to 10 uM after 72 hrs by CellTiter-Glo luminescent assay; format: functional, cell-based
# [12] = tested on: NB-4; test: Cytotoxicity against human NB4 cells expressing KRAS mutant gene assessed as effect on cell viability up to 10 uM after 72 hrs by CellTiter-Glo luminescent assay; format: functional, cell-based
# [13] = tested on: Plasma; test: Plasma protein binding in human at 5 uM after 5 hrs by equilibrium dialysis method; format: ADME, cell-free
# [14] = species: Homo sapiens; test: Cytotoxicity against human KARPAS620 cells expressing KRAS mutant gene assessed as effect on cell viability up to 10 uM after 72 hrs by CellTiter-Glo luminescent assay; format: functional, cell-based
# [15] = tested on: OCI-AML-3; test: Cytotoxicity against human OCI-AML3 cells expressing wild type KRAS assessed as effect on cell viability up to 10 uM after 72 hrs by CellTiter-Glo luminescent assay; format: functional, cell-based
# [16] = Metabolic stability in mouse plasma at 5 uM after 5 hrs by UPLC-MS analysis; format: ADME, cell-free; settings: read-out: Stability
# [17] = tested on: RPMI-8226; test: Cytotoxicity against human RPMI8226 cells expressing KRAS mutant gene assessed as effect on cell viability up to 10 uM after 72 hrs by CellTiter-Glo luminescent assay; format: functional, cell-based
# [18] = tested on: SKM-1; test: Cytotoxicity against human SKM1 cells expressing KRAS mutant gene assessed as effect on cell viability up to 10 uM after 72 hrs by CellTiter-Glo luminescent assay; format: functional, cell-based
# [19] = tested on: U-937; test: Cytotoxicity against human U937 cells expressing wild type KRAS assessed as effect on cell viability up to 10 uM after 72 hrs by CellTiter-Glo luminescent assay; format: functional, cell-based
# [20] = tested on: KOPN-8; test: Cytotoxicity against human KOPN8 cells expressing KRAS mutant gene assessed as effect on cell viability up to 10 uM after 72 hrs by CellTiter-Glo luminescent assay; format: functional, cell-based
# [21] = tested on: Plasma; test: Plasma protein binding in mouse at 5 uM after 5 hrs by equilibrium dialysis method; format: ADME, cell-free
# [22] = tested on: PL21; test: Cytotoxicity against human PL21 cells expressing wild type KRAS assessed as effect on cell viability up to 10 uM after 72 hrs by CellTiter-Glo luminescent assay; format: functional, cell-based
# [23] = tested on: THP-1; test: Cytotoxicity against human THP1 cells expressing wild type KRAS assessed as effect on cell viability up to 10 uM after 72 hrs by CellTiter-Glo luminescent assay; format: functional, cell-based
# [24] = biological target: Vascular endothelial growth factor receptor 2 (Homo sapiens) (UniProt P35968); settings: 1 uM
# Sequence of Vascular endothelial growth factor receptor 2 (Homo sapiens) (P35968 whole entry): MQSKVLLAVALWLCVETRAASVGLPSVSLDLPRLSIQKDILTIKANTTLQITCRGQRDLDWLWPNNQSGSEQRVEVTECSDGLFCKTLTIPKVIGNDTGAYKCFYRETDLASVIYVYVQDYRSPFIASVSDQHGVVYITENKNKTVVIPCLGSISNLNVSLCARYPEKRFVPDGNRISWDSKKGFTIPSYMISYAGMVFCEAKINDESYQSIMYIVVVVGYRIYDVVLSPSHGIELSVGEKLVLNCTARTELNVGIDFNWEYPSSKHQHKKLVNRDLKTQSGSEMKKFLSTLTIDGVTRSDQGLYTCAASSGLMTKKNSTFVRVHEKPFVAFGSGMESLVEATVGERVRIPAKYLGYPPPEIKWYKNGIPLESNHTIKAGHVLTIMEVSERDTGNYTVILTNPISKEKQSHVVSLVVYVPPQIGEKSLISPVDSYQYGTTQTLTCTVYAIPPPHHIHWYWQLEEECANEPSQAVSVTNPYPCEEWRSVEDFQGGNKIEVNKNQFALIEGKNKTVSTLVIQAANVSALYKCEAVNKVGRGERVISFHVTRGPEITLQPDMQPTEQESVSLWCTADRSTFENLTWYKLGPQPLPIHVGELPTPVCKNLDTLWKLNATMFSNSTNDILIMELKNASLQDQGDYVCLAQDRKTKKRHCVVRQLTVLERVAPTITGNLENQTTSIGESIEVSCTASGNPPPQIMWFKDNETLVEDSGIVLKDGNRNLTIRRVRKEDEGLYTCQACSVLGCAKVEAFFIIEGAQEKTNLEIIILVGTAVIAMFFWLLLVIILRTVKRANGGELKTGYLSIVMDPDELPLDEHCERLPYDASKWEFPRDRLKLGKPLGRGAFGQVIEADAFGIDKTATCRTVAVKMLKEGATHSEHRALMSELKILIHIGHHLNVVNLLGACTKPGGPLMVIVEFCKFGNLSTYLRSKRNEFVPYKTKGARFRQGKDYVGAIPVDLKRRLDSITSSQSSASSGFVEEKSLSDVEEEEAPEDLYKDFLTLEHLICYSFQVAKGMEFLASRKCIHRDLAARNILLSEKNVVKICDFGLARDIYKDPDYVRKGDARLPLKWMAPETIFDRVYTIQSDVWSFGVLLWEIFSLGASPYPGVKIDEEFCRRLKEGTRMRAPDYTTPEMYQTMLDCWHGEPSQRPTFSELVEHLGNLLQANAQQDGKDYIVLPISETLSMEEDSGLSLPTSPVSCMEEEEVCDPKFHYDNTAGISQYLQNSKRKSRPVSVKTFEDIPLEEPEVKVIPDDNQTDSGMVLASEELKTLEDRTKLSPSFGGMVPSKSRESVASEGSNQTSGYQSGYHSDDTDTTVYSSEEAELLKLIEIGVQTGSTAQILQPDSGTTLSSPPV
# Description: Inhibition of human KDR at 1 uM
# [25] = tested on: EJM; test: Cytotoxicity against human EJM cells expressing wild type KRAS assessed as effect on cell viability up to 10 uM after 72 hrs by CellTiter-Glo luminescent assay; format: functional, cell-based
# [26] = tested on: NOMO-1; test: Cytotoxicity against human NOMO1 cells expressing KRAS mutant gene assessed as effect on cell viability up to 10 uM after 72 hrs by CellTiter-Glo luminescent assay; format: functional, cell-based
# [27] = biological target: T1, Serine/threonine-protein kinase 33; settings: 1 uM
# Target sequence in this assay (Q9BYT3 whole entry, looked up, the tested form may be a part): as the sequence (Q9BYT3 whole entry, the tested form may be a part) above
# Description: Inhibition of N-terminal 6His-tagged full length human recombinant STK33 using myelin basic protein as substrate at 1 uM incubated for 15 mins before initiation of kinase reaction measured after 1 hr by ADP-glo assay
# [28] = Solubility of the compound in PBS at pH 7.4; format: physicochemical; settings: buffer
# [29] = tested on: EOL1; test: Cytotoxicity against human EOL-1 cells expressing wild type KRAS assessed as effect on cell viability up to 10 uM after 72 hrs by CellTiter-Glo luminescent assay; format: functional, cell-based
# [30] = tested on: MM1.S; test: Cytotoxicity against human MM1S cells expressing wild type KRAS assessed as effect on cell viability up to 10 uM after 72 hrs by CellTiter-Glo luminescent assay; format: functional, cell-based
# [31] = tested on: MDA-MB-231; test: Cytotoxicity against human MDA-MB-231 cells expressing KRAS mutant gene assessed as effect on cell viability up to 10 uM after 72 hrs by CellTiter-Glo luminescent assay; format: functional, cell-based
smiles,measurement,setting,value
O=c1[nH]c2ccccc2nc1-c1ccccc1NCc1ccccn1,IC50,[1],1600 nM
O=C(Nc1ccccc1-c1nc2ccccc2[nH]c1=O)c1ccccn1,IC50,[2],> 10000 nM
same,Stability,[3],Unstable
same,IC50,[1],76 nM
O=c1[nH]c2ccccc2nc1-c1ccccc1NS(=O)(=O)c1cccs1,IC50,[1],> 10000 nM
COc1ccc(C(=O)Nc2ccccc2-c2nc3ccccc3[nH]c2=O)cc1,IC50,[2],> 10000 nM
same,IC50,[1],980 nM
O=c1[nH]c2ccccc2nc1-c1ccccc1NCc1ccc(F)cc1,IC50,[1],> 10000 nM
O=c1[nH]c2ccccc2nc1-c1ccccc1NS(=O)(=O)c1ccccc1,IC50,[1],7300 nM
Cc1cc2nc(-c3ccccc3NC(=O)c3cccs3)c(=O)[nH]c2cc1C,IC50,[2],> 10000 nM
same,IC50,[1],1600 nM
O=C(Nc1ccc(F)cc1-c1nc2ccccc2[nH]c1=O)c1cccs1,IC50,[2],> 10000 nM
same,IC50,[1],410 nM
O=C(Nc1ccccc1-c1nc2ccccc2[nH]c1=O)c1ccccc1,IC50,[1],170 nM
O=C(Nc1ccccc1-c1nc2cc(Cl)c(Cl)cc2[nH]c1=O)c1cccs1,IC50,[2],4800 nM
same,Ratio IC50,[4],1.1
same,IC50,[1],4000 nM
O=C(Nc1cc(Cl)ccc1-c1nc2ccccc2[nH]c1=O)c1cccs1,IC50,[2],> 10000 nM
same,IC50,[1],270 nM
O=c1[nH]c2ccccc2nc1-c1ccccc1NCc1cccs1,IC50,[2],> 10000 nM
same,IC50,[1],> 10000 nM
O=C(Nc1ccc(Cl)cc1-c1nc2ccccc2[nH]c1=O)c1cccs1,IC50,[2],> 10000 nM
same,IC50,[1],160 nM
CC(=O)NC[C@@H]1C[C@@H](NS(=O)(=O)c2cccc3cncc(C)c23)CN1,Ratio IC50,[4],5
same,Ratio IC50,[5],5
O=C(Nc1ccccc1-c1nc2ccccc2[nH]c1=O)c1nccs1,IC50,[1],530 nM
O=C(Nc1ccccc1-c1nc2ccccc2[nH]c1=O)c1ccc(Cl)s1,IC50,[1],380 nM
COc1ccc(-n2ncc3ccc(Nc4ccc(N5CCN(C)CC5)c(OC)c4)nc32)cc1,Ratio IC50,[6],2
same,Ratio IC50,[5],0.4
O=C(Nc1cc(F)ccc1-c1nc2ccccc2[nH]c1=O)c1cccs1,IC50,[2],> 10000 nM
same,IC50,[1],78 nM
O=C(Nc1ccccc1-c1nc2ccccc2[nH]c1=O)c1ccc(Cl)cc1,IC50,[1],300 nM
O=c1[nH]c2ccccc2nc1-c1ccccc1NCC1CC1,IC50,[1],> 10000 nM
O=c1[nH]c2ccccc2nc1-c1ccccc1NCc1ccccc1,IC50,[2],> 10000 nM
same,IC50,[1],> 10000 nM
O=C(Nc1ccccc1-c1nc2cc(F)c(F)cc2[nH]c1=O)c1cccs1,IC50,[2],> 10000 nM
same,IC50,[1],1600 nM
CC(C)c1ccc(NC(=O)c2cccs2)c(-c2nc3ccccc3[nH]c2=O)c1,Activity,[7],inactive
same,IC50,[2],> 10000 nM
same,"remaining at 5 h, 5 µM",[8],80.3%
same,inhibition,[9],> 25%
same,Activity,[10],inactive
same,Activity,[11],inactive
same,Activity,[12],inactive
same,PPB,[13],99.6%
same,Activity,[14],inactive
same,Activity,[15],inactive
same,"remaining at 5 h, 5 µM",[16],10%
same,Activity,[17],inactive
same,Activity,[18],inactive
same,Activity,[19],inactive
same,Activity,[20],inactive
same,PPB,[21],99.9%
same,Activity,[22],inactive
same,Activity,[23],inactive
same,inhibition,[24],> 25%
same,Activity,[25],inactive
same,Activity,[26],inactive
same,IC50,[1],14 nM
same,inhibition,[27],> 25%
same,solubility,[28],5.8 µM
same,Activity,[29],inactive
same,Activity,[30],inactive
same,Activity,[31],inactive
COc1ccc(NC(=O)c2cccs2)c(-c2nc3ccccc3[nH]c2=O)c1,IC50,[2],7500 nM
same,Ratio IC50,[4],30
same,IC50,[1],250 nM
O=C(Nc1ccc(OC(F)(F)F)cc1-c1nc2ccccc2[nH]c1=O)c1cccs1,IC50,[2],> 10000 nM
same,IC50,[1],110 nM
O=C(Nc1ccccc1-c1nc2ccccc2nc1O)c1cccs1,IC50,[2],> 10000 nM
same,IC50,[1],280 nM
O=C(Nc1ccccc1-c1nc2ccccc2[nH]c1=O)c1cccnc1,IC50,[2],> 10000 nM
same,Stability,[3],Stable
same,IC50,[1],580 nM
O=C(Nc1ccccc1-c1nc2ccccc2[nH]c1=O)c1ccc(F)cc1,IC50,[2],> 10000 nM
same,Stability,[3],Unstable
same,IC50,[1],150 nM
O=C(Nc1ccccc1-c1nc2ccccc2[nH]c1=O)C1CCCCC1,IC50,[2],> 10000 nM
same,IC50,[1],> 10000 nM
